Assays:
[1] = tested on: Tte preQ1 riboswitch (not labelled) (RNA, riboswitch) CUGGGUCGCAGUAACCCCAGUUAACAAAACAAG; test: ITC; settings: 100 mM NaCl, 6 mM MgCl2, 50 mM HEPES pH 7.0, 25 °C; for binding: loose binding in SPR; for KD: 0.2% DMSO
[2] = tested on: 5'-Cy5-Ba SAM-VI riboswitch (RNA, riboswitch) GGCAUUGUGCCUCGCAUUGCACUCCGCGGGGCGAUAAGUCCUGAAAAGGGAUGUC; test: MST; settings: 100 mM KCl, 25 mM MgCl2, 50 mM Tris-HCl pH 7.5, 2% DMSO
[3] = tested on: 5'-Biotin-Ba SAM-VI riboswitch (RNA, riboswitch) GGCAUUGUGCCUCGCAUUGCACUCCGCGGGGCGAUAAGUCCUGAAAAGGGAUGUC; test: SPR, 1:1 kinetic fit; settings: 150 mM NaCl, 6 mM MgCl2; 50 mM HEPES pH 7.0, 25 °C
[4] = tested on: 5'-Biotin-Tte preQ1 riboswitch (RNA, riboswitch) CUGGGUCGCAGUAACCCCAGUUAACAAAACAAG; test: SPR; settings: 150 mM NaCl, 6 mM MgCl2; 50 mM HEPES pH 7.0, 25 °C; loose unspecific, no saturation to 50 µM, KD not determinable
[5] = tested on: Ba SAM-VI riboswitch (label-free, IVT) (RNA, riboswitch) GGCAUUGUGCCUCGCAUUGCACUCCGCGGGGCGAUAAGUCCUGAAAAGGGAUGUC; test: ITC; settings: 50 mM KCl, 10 mM MgCl2; 40 mM HEPES pH 7.0, 25 °C, 0.2% DMSO
[6] = tested on: 5'-Cy5-Tte preQ1 riboswitch (RNA, riboswitch) CUGGGUCGCAGUAACCCCAGUUAACAAAACAAG; test: MST; settings: 100 mM KCl, 25 mM MgCl2, 50 mM Tris-HCl pH 7.5, 2% DMSO
[7] = tested on: 5'-Biotin-Tte preQ1 riboswitch (RNA, riboswitch) CUGGGUCGCAGUAACCCCAGUUAACAAAACAAG; test: SPR, Interaction Map analysis; settings: 150 mM NaCl, 6 mM MgCl2; 50 mM HEPES pH 7.0, 25 °C, 2% DMSO
[8] = tested on: 5'-Biotin-Tte preQ1 riboswitch (RNA, riboswitch) CUGGGUCGCAGUAACCCCAGUUAACAAAACAAG; test: SPR, 1:1 kinetic fit; settings: 150 mM NaCl, 6 mM MgCl2, 50 mM HEPES pH 7.0, 25 °C

SMILES	binding ([2]; up to 1 mM)	KD [3] [µM]	KD [5] [mM]	binding ([6]; up to 1 mM)	other results
NCCCCNCCCNCCOc1ccc2oc3ccccc3c2c1	no				binding ([1]; RNA 15 µM, ligand 150 µM): no
NCCCNC[C@H]1O[C@@H](n2cnc3c(N)ncnc32)[C@H](O)[C@@H]1O		4.17 ± 1.56	0.00173 ± 0.00051	no	binding [4]: weak; binding ([2]; 20 nM RNA): yes
N#Cc1c[nH]c2nc(N)[nH]c(=O)c12	no				KD [7]: 134 nM; KD [1]: 85.4 ± 3.3 nM; binding ([6]; 20 nM RNA): yes; KD ([8]; 2% DMSO): 74.0 ± 29.4 nM
Nc1ncnc2c1ncn2[C@@H]1O[C@H](CNCC[C@H](N)C(=O)O)[C@@H](O)[C@H]1O		12.3 ± 1.3	0.00331 ± 0.00021	no	KD ([2]; 20 nM RNA): 33.3 µM
Nc1ncnc2c1ncn2[C@@H]1O[C@H](CSCC[C@H](N)C(=O)O)[C@@H](O)[C@H]1O		150 ± 39	0.014 ± 0.0042	no	KD ([2]; 20 nM RNA): 34.4 ± 12.0 × 10^-6 M
C[S+](CC[C@H](N)C(=O)O)C[C@H]1O[C@@H](n2cnc3c(N)ncnc32)[C@H](O)[C@@H]1O (some centres unmarked)		3.72 ± 0.41	0.000671 ± 5.9e-05	no	KD ([2]; 20 nM RNA): 0.718 ± 0.399 × 10^-6 M
NCc1c[nH]c2nc(N)[nH]c(=O)c12	no				KD [1]: 23.1 ± 7.4 nM; binding ([6]; 20 nM RNA): yes; KD ([8]; one representative sensorgram, replicates 18.5-47.4, mean not in material): 19.1 nM

Now from value to compound, other results behind:

binding ([2]; up to 1 mM)	KD [3] [µM]	KD [5] [mM]	binding ([6]; up to 1 mM)	SMILES	other results
no				NCCCCNCCCNCCOc1ccc2[nH]c3ccccc3c2c1	binding ([1]; RNA 15 µM, ligand 150 µM): no
no				NCCOc1ccc2oc3ccccc3c2c1	binding ([1]; RNA 30 µM, ligand 300 µM): no
no				NCCOc1ccc2[nH]c3ccccc3c2c1	binding ([1]; RNA 15 µM, ligand 150 µM): no
no				NCCCNCCOc1ccc2oc3ccccc3c2c1	binding ([1]; RNA 30 µM, ligand 300 µM): no
no				NCCCNCCOc1ccc2[nH]c3ccccc3c2c1	binding ([1]; RNA 30 µM, ligand 300 µM): no

Source: article PMC12035807 (2025)
